From PMC5557681 (Journal of veterinary cardiology : the official journal of …, 2017)
Counter-ions that a name gives are not always drawn. Like-named read-outs stand apart in the source and are kept apart here.

Legend:
[1] = Analyte stability during storage in citrate or EDTA treated feline plasma; format: physicochemical; conditions: for Time stable at room temperature: EDTA treated feline plasma; for Deviation from nominal concentration (%): EDTA treated plasma, spike CAM-D 100, clopidogrel 38.3, acid 500 ng/mL; for Time stable at −80°C: citrate treated feline plasma; for Time stable at room temperature (abstract) / Time stable at −80°C (abstract): feline plasma
[2] = in vivo, po
[3] = cited from earlier work
[4] = in vivo; conditions: po, 18.75 mg
[5] = humans; cited from earlier work
[6] = test system: feline cardiogenic thromboembolism; conditions: cats; cited from earlier work
[7] = test system: ADP-induced platelet aggregation; conditions: cited from earlier work

## COC(=O)C(c1ccccc1Cl)N1CCC2SC(=O)C=C2C1.Cl (stereo not shown) [2-oxo-clopidogrel, 2-oxo-clopidogrel hydrochloride]
[1]; all storage temperatures tested, EDTA and citrate treated plasma
  Stability in feline plasma (in words): unstable
[1]; all storage temperatures tested, EDTA treated and citrate treated plasma, data not shown
  Decrease from nominal concentration within 6 hours: > 25%

## COC(=O)[C@H](c1ccccc1Cl)N1CCc2sccc2C1 [Clopidogrel, S-(+)-clopidogrel hydrogen sulfate, reference compound]
[2]; cat
  AUC that was extrapolated: < 2%
[2]; 18.75 mg
  AUClast (0 to 24hrs): 225 ng·h/mL
  Cmax: 144 ng/mL
  t1/2 (elimination half-life): 5.2 h
[3]; healthy humans / people
  Cmax in humans: 20 ng/mL
[3]; post administration
  Tmax in people: around 1 hour
[4]; AUClast (0 to 24hrs)
  AUC(0-t): 374 ng·h/mL
[4]; Cmax
  Cmax: 134 ng/mL
[4]; t1/2 (elimination half-life)
  half-life: 5.4 h
[5]
  Proportion metabolized in the liver to inactive clopidogrel carboxylic acid: 85%
[6]
  Prevention of feline cardiogenic thromboembolism: superior to aspirin
[1]
  Time stable at room temperature: at least 1 week
  Time stable at −80°C: at least 9 months
  Time stable at room temperature (abstract): 1 week
  Time stable at −80°C (abstract): 9 months
[1]; 4°C, 6 h
  Deviation from nominal concentration (%): −7%
[1]; RT, 1 wk
  Deviation from nominal concentration (%): 6%
[1]; RT, 24 h
  Deviation from nominal concentration (%): −2%
[1]; RT, 48 h
  Deviation from nominal concentration (%): −5%
[1]; RT, 72 h
  Deviation from nominal concentration (%): −1%

## COC(=O)C(c1ccccc1Cl)N1CCC(S)C(=CC(=O)O)C1 (stereo not shown) [H4]
[7]
  Antiplatelet activity relative to H2: about twice the activity of H2

## O=C(O)[C@H](c1ccccc1Cl)N1CCc2sccc2C1 [Clopidogrel carboxylic acid, clopidogrel carboxylic acid]
[2]
  AUC that was extrapolated: 15–20%
[2]; 18.75 mg
  Cmax and AUC values compared with clopidogrel and CAM-D: over 100 fold
  Cmax values (range of both cats): 2,900–3,300 ng/mL
  Elimination half-life compared with clopidogrel and CAM-D: about 2 times
  Time post administration at which Cmax was reached (both cats): 1.5 to 2 h
[1]
  Time stable at room temperature: at least 1 week
  Time stable at −80°C: at least 9 months
  Time stable at room temperature (abstract): 1 week
  Time stable at −80°C (abstract): 9 months
[1]; 4°C, 6 h
  Deviation from nominal concentration (%): −6%
[1]; RT, 1 wk
  Deviation from nominal concentration (%): −1%
[1]; RT, 24 h
  Deviation from nominal concentration (%): −2%
[1]; RT, 48 h
  Deviation from nominal concentration (%): −10%
[1]; RT, 72 h
  Deviation from nominal concentration (%): 1%
